Experimental data from PubChem BioAssay AID200 (DTP/NCI, 2004).
“And” between values parts separate entries of the source, which are not always exact repeats. Equal values may be shown once. Inconclusive results and toxic doses are left out. How the source made its calls: active means survival T/C of 150% or more; inactive means T/C below 125% in these data.

Test system: B6C3F1 mice, B16 melanoma ip, median survival T/C
Assay: NCI In Vivo Anticancer Drug Screen. Data for tumor model B16 Melanoma (intraperitoneal) in B6C3F1 mice
Conditions: endpoint: median survival time, higher = longer survival
In short: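 Readout: survival or tumor size in treated mice relative to vehicle controls (T/C). Model uses transplantable tumors grown in mice.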

[1] = dose: 12.5 mg/kg/injection, schedule: Q01DX009 (ip), vehicle: saline with Tween-80
[2] = dose: 25.0 mg/kg/injection, schedule: Q01DX009 (ip), vehicle: saline with Tween-80
[3] = dose: 400.0 mg/kg/injection, schedule: Q01DX009 (ip), vehicle: saline with Tween-80
[4] = dose: 25.0 mg/kg/injection, schedule: Q01DX009 (ip), vehicle: saline
[5] = dose: 50.0 mg/kg/injection, schedule: Q01DX009 (ip), vehicle: saline
[6] = dose: 100.0 mg/kg/injection, schedule: Q01DX009 (ip), vehicle: saline
[7] = dose: 50.0 mg/kg/injection, schedule: Q01DX009 (ip), vehicle: saline with Tween-80
[8] = dose: 100.0 mg/kg/injection, schedule: Q01DX009 (ip), vehicle: saline with Tween-80
[9] = dose: 200.0 mg/kg/injection, schedule: Q01DX009 (ip), vehicle: saline with Tween-80

Measured: T/C

C1CN1P1(N2CC2)=NP(N2CC2)(N2CC2)=NP(N2CC2)(N2CC2)=NP(N2CC2)(N2CC2)=N1
inactive: dose: 1.0 mg/kg/injection, schedule: Q01DX009 (ip), vehicle: saline 95 % of control and 98 % of control | dose: 1.0 mg/kg/injection, schedule: Q02DX009 (ip), vehicle: saline 91 % of control and 97 % of control | dose: 2.0 mg/kg/injection, schedule: Q01DX009 (ip), vehicle: saline 92 % of control and 96 % of control | dose: 2.0 mg/kg/injection, schedule: Q02DX009 (ip), vehicle: saline 91 % of control and 97 % of control | dose: 4.0 mg/kg/injection, schedule: Q01DX009 (ip), vehicle: saline 109 % of control and 95 % of control | dose: 4.0 mg/kg/injection, schedule: Q02DX009 (ip), vehicle: saline 91 % of control and 98 % of control | dose: 8.0 mg/kg/injection, schedule: Q01DX009 (ip), vehicle: saline 89 % of control and 107 % of control | dose: 8.0 mg/kg/injection, schedule: Q02DX009 (ip), vehicle: saline 90 % of control and 97 % of control | dose: 16.0 mg/kg/injection, schedule: Q01DX009 (ip), vehicle: saline 91 % of control and 100 % of control | dose: 16.0 mg/kg/injection, schedule: Q02DX009 (ip), vehicle: saline 112 % of control | dose: 32.0 mg/kg/injection, schedule: Q01DX009 (ip), vehicle: saline 109 % of control and 91 % of control | dose: 32.0 mg/kg/injection, schedule: Q02DX009 (ip), vehicle: saline 88 % of control and 103 % of control | dose: 64.0 mg/kg/injection, schedule: Q01DX009 (ip), vehicle: saline 109 % of control and 90 % of control | dose: 64.0 mg/kg/injection, schedule: Q02DX009 (ip), vehicle: saline 94 % of control and 100 % of control

O=C1c2ccccc2CCC1Cl (stereo not drawn)
inactive: dose: 1.5 mg/kg/injection, schedule: Q01DX009 (ip), vehicle: DMSO 87 % of control | dose: 3.0 mg/kg/injection, schedule: Q01DX009 (ip), vehicle: DMSO 86 % of control and 87 % of control and 88 % of control | dose: 12.0 mg/kg/injection, schedule: Q01DX009 (ip), vehicle: DMSO 89 % of control | dose: 1.2 micrograms/kg/injection, schedule: Q01DX009 (ip), vehicle: DMSO 91 % of control | dose: 2.5 micrograms/kg/injection, schedule: Q01DX009 (ip), vehicle: DMSO 86 % of control | dose: 5.0 micrograms/kg/injection, schedule: Q01DX009 (ip), vehicle: DMSO 87 % of control | dose: 10.0 micrograms/kg/injection, schedule: Q01DX009 (ip), vehicle: DMSO 88 % of control

NC(=S)N/N=C\c1ncccc1OCc1cccc(N)c1
inactive: dose: 12.5 mg/kg/injection, schedule: Q01DX009 (ip), vehicle: distilled water + Tween-80 86 % of control | [1] 103 % of control | dose: 25.0 mg/kg/injection, schedule: Q01DX009 (ip), vehicle: distilled water + Tween-80 100 % of control | [2] 109 % of control and 113 % of control and 106 % of control | dose: 50.0 mg/kg/injection, schedule: Q01DX009 (ip), vehicle: distilled water + Tween-80 114 % of control | dose: 100.0 mg/kg/injection, schedule: Q01DX009 (ip), vehicle: distilled water + Tween-80 108 % of control | dose: 200.0 mg/kg/injection, schedule: Q01DX009 (ip), vehicle: distilled water + Tween-80 118 % of control | dose: 400.0 mg/kg/injection, schedule: Q01DX009 (ip), vehicle: distilled water + Tween-80 99 % of control | [3] 113 % of control and 121 % of control

CC(C)NCC(O)COc1ccc(O)c(O)c1 (stereo not drawn)
inactive: [4] 100 % of control and 103 % of control | [5] 113 % of control and 106 % of control | [6] 109 % of control and 116 % of control

O=C(O)CSC(CC(=O)O)C(=O)O (stereo not drawn)
inactive: [4] 94 % of control | [5] 89 % of control | [6] 94 % of control

N#CCc1c[nH]c2ccc([N+](=O)[O-])cc12
inactive: [7] 102 % of control | [8] 100 % of control | [9] 108 % of control

CCCCCCCCCCCCCCCCC(C(=O)O)C(O)(CC(=O)O)C(=O)O (stereo not drawn)
inactive: dose: 8.75 mg/kg/injection, schedule: Q01DX009 (ip), vehicle: Klucel (hydroxypropylcellulose) (HPC) 95 % of control | dose: 17.5 mg/kg/injection, schedule: Q01DX009 (ip), vehicle: Klucel (hydroxypropylcellulose) (HPC) 91 % of control | dose: 35.0 mg/kg/injection, schedule: Q01DX009 (ip), vehicle: Klucel (hydroxypropylcellulose) (HPC) 100 % of control | dose: 70.0 mg/kg/injection, schedule: Q01DX009 (ip), vehicle: Klucel (hydroxypropylcellulose) (HPC) 93 % of control

Cc1ccc(NCCN(C)C)c2c(=O)c3cc(O)ccc3sc12
inactive: dose: 50.0 mg/kg/injection, schedule: Q01DX009 (ip), vehicle: Klucel (hydroxypropylcellulose) (HPC) 87 % of control
active: dose: 12.0 mg/kg/injection, schedule: Q01DX009 (ip), vehicle: Klucel (hydroxypropylcellulose) (HPC) 164 % of control | dose: 25.0 mg/kg/injection, schedule: Q01DX009 (ip), vehicle: Klucel (hydroxypropylcellulose) (HPC) 183 % of control

CSCCC(NC(=O)CN)C(=O)O (stereo not drawn)
inactive: [6] 87 % of control | dose: 200.0 mg/kg/injection, schedule: Q01DX009 (ip), vehicle: saline 90 % of control | dose: 400.0 mg/kg/injection, schedule: Q01DX009 (ip), vehicle: saline 91 % of control

COC(=O)Nc1nc2ccc(C3(c4ccc(F)cc4)OCCO3)cc2[nH]1
active: [7] 172 % of control
inactive: dose: 6.25 mg/kg/injection, schedule: Q01DX009 (ip), vehicle: saline with Tween-80 93 % of control | [1] 118 % of control | dose: 12.5 mg/kg/injection, schedule: Q01DX009 (ip), vehicle: saline 117 % of control

CC(C)(C)N(C(=O)OCC1c2ccccc2-c2ccccc21)C(CO)C(=O)O (stereo not drawn)
inactive: dose: 100.0 mg/kg/injection, schedule: Q01DX009 (ip), vehicle: Klucel (hydroxypropylcellulose) (HPC) 96 % of control

O=c1[nH]c(=O)n(C2CC(O)C(CO)O2)cc1I (stereo not drawn)
inactive: [3] 111 % of control

CC(C)CC(NC(=O)CN)C(=O)O (stereo not drawn)
inactive: [8] 101 % of control | [9] 95 % of control | [3] 97 % of control

COC(C(=O)C(O)C(C)O)C1CC2C=C3C=C(OC4CC(OC5CC(O)C(OC)C(C)O5)C(OC(C)=O)C(C)O4)C(C)C(=O)C3=C(O)C2=C(O)C1OC1CC(OC2CC(OC3CC(C)(O)C(O)C(C)O3)C(O)C(C)O2)C(O)C(C)O1 (stereo not drawn)
active: dose: 4.0 mg/kg/injection, schedule: Q01DX009 (ip), vehicle: saline with Tween-80 178 % of control | dose: 8.0 mg/kg/injection, schedule: Q01DX009 (ip), vehicle: saline with Tween-80 178 % of control
inactive: dose: 0.25 mg/kg/injection, schedule: Q01DX009 (ip), vehicle: saline with Tween-80 109 % of control | dose: 0.5 mg/kg/injection, schedule: Q01DX009 (ip), vehicle: saline with Tween-80 120 % of control | dose: 1.0 mg/kg/injection, schedule: Q01DX009 (ip), vehicle: saline with Tween-80 120 % of control

C/C=C(\C)C(=O)N[C@@H](c1ccccc1)[C@@H](O)C(=O)OC1C[C@@]2(O)[C@@H](OC(=O)c3ccccc3)[C@@H]3[C@]4(OC(C)=O)CO[C@@H]4C[C@H](O)[C@@]3(C)C(=O)[C@H](OC(C)=O)C(=C1C)C2(C)C (stereo partly drawn)
inactive: dose: 0.5 mg/kg/injection, schedule: Q01DX009 (ip), vehicle: saline + Tween-80 + alcohol 113 % of control | dose: 1.0 mg/kg/injection, schedule: Q01DX009 (ip), vehicle: saline + Tween-80 + alcohol 106 % of control
active: dose: 4.0 mg/kg/injection, schedule: Q01DX009 (ip), vehicle: saline + Tween-80 + alcohol 172 % of control

N#C[C@H](OC1OC(COC2OC(CO)C(O)C(O)C2O)C(O)C(O)C1O)c1ccccc1 (stereo partly drawn)
inactive: dose: 12.5 mg/kg/injection, schedule: Q01DX009 (oral), vehicle: saline 96 % of control | dose: 25.0 mg/kg/injection, schedule: Q01DX009 (ip), vehicle: suspension in saline 98 % of control | dose: 25.0 mg/kg/injection, schedule: Q01DX009 (oral), vehicle: saline 101 % of control | dose: 50.0 mg/kg/injection, schedule: Q01DX009 (ip), vehicle: suspension in saline 98 % of control | dose: 50.0 mg/kg/injection, schedule: Q01DX009 (oral), vehicle: saline 98 % of control (2×) and 102 % of control | dose: 100.0 mg/kg/injection, schedule: Q01DX009 (ip), vehicle: suspension in saline 108 % of control | dose: 200.0 mg/kg/injection, schedule: Q01DX009 (ip), vehicle: suspension in saline 121 % of control | dose: 400.0 mg/kg/injection, schedule: Q01DX009 (ip), vehicle: suspension in saline 103 % of control | dose: 800.0 mg/kg/injection, schedule: Q01DX009 (ip), vehicle: suspension in saline 111 % of control

Cc1ccc(S(=O)(=O)NC(=S)S)cc1
inactive: [1] 92 % of control | [2] 92 % of control | [7] 95 % of control | [8] 97 % of control | [9] 94 % of control

O=C(NCc1ccccc1)c1cccnc1
inactive: [8] 94 % of control | [9] 94 % of control | [3] 93 % of control
